According to BindingDB's records for doi:10.7270/Q2PR7TFT (Burnham Center For Chemical Genomics, 2010):

target: T1, Type-1 angiotensin II receptor (Homo sapiens, UniProt P30556); test: agonist activity at AGTR1 – cell-based, uHTS hits, selectivity assay for APJ receptor agonist project, dose response (AID 488865)
T1 sequence (P30556 whole entry): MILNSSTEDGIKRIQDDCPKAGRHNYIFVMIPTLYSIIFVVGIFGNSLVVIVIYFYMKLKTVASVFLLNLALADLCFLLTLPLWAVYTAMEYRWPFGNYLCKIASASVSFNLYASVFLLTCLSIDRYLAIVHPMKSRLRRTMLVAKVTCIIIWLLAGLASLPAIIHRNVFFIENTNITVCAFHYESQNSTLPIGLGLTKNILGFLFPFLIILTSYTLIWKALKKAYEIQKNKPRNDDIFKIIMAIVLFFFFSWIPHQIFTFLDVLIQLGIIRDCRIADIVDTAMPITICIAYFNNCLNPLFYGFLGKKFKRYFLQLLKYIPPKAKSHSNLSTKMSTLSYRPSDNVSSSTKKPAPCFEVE

EC50, > 100 µM:
CCCCCCC1=Cc2c/c(=C3/NN=C(c4cc(OC)c(OC)c(OC)c4)O3)c(=O)oc2=CC1=O
COc1ccc(CN=Nc2cc(C)nc3ccc(OC)cc23)c(OC)c1
CCOC(=O)C1C(Cn2cnc3ccccc32)=NC(=O)NC1c1cc(C)ccc1C (centres undefined) [ethyl 6-(benzimidazol-1-ylmethyl)-4-(2,5-dimethylphenyl)-2-oxidanylidene-3,4-dihydro-1H-pyrimidine-5-carboxylate]
COC(=O)C1C(Cn2cnc3ccccc32)=NC(=O)NC1c1cc(C)ccc1C (centres undefined) [methyl 6-(benzimidazol-1-ylmethyl)-4-(2,5-dimethylphenyl)-2-oxo-3,4-dihydro-1H-pyrimidine-5-carboxylate]
